Consider 4 compounds from US10344049B2, “Substituted steroids for the treatment of cancer” (AQUAVAN TECHNOLOGY CO., LTD., priority 2017, dated 2019).

Common to all, as to assay type: cell-based
For experiment [1], the system named is African green monkey kidney cells Vero. Nature of the experiment: Cell viability test (Resazurin), Vero cells. The conditions noted are these: for IC50: Chlorocebus sabaeus, Vero. On the procedure:
(§1) Cell viability was determined with Resazurin (at a final concentration of 25 μg/mL).

The subject of experiment [2] is human breast cancer cells MDA-MB-231. Nature of the experiment: Cell viability test (Resazurin), MDA-MB-231 cells. The note with it: for IC50: Homo sapiens. Also noted: evaluation of ability to inhibit cell growth activity (IC50): scale not given here. On the procedure: as §1
In general terms: Resazurin is reduced to fluorescent resorufin, in cell work by metabolically active cells.

Experiment [3] deals with human Glioblastoma cells U87-MG. Put plainly: Cell viability test (Resazurin), U87-MG cells. Also noted: evaluation of ability to inhibit cell growth activity (IC50): scale not given here. The note with it: for IC50: Homo sapiens, U-87 MG. Here is the method: as §1
In experiment [4] the test system is human breast cancer cells MDA-MB-468. Put plainly: Cell viability test (Resazurin), MDA-MB-468 cells. The note with it: for IC50: Homo sapiens. Here is the method:
as §1

The test system of experiment [5] is human liver cancer cells Mahlavu. Nature of the experiment: Cell viability test (Resazurin), Mahlavu cells. The conditions noted are these: for IC50: Homo sapiens, Mahlavu. On the procedure:
as §1

The subject of experiment [6] is human lung cancer cells A549. Put plainly: Cell viability test (Resazurin), A549 cells. The conditions noted are these: for IC50: Homo sapiens. Also noted: evaluation of ability to inhibit cell growth activity (IC50): scale not given here. On the procedure: as §1
Experiment [7] deals with human colorectal cancer cells SW-480. Nature of the experiment: Cell viability test (Resazurin), SW480 cells. More on the design: evaluation of ability to inhibit cell growth activity (IC50): scale not given here. The conditions noted are these: for IC50: Homo sapiens. Here is the method:
as §1

Experiment [8] has as its system human leukemia cells U937. Nature of the experiment: Cell viability test (Resazurin), U937 cells. The conditions noted are these: for IC50: Homo sapiens. Here is the method: as §1
[9] abbreviates: 48 h, 0.1% FCS, Resazurin, read-out: inhibitory concentrations of cell growth activity IC50.
Setting [10] is: grade of the IC50 of Table 2, read-out: evaluation of ability to inhibit cell growth activity (IC50).
[11] abbreviates: MDA-MB-231, 48 h, MDA-MB-231 cells, 48 hours, 0.1% FCS, Resazurin, read-out: inhibitory concentrations of cell growth activity IC50.
Setting [12] is: MDA-MB-231, MDA-MB-231 cells, grade of the IC50 of Table 2, read-out: evaluation of ability to inhibit cell growth activity (IC50).
The mark [13] stands for this setting: MDA-MB-468, 48 h, MDA-MB-468 cells, 48 hours, 0.1% FCS, Resazurin, read-out: inhibitory concentrations of cell growth activity IC50.
[14] abbreviates: MDA-MB-468, MDA-MB-468 cells, grade of the IC50 of Table 2, read-out: evaluation of ability to inhibit cell growth activity (IC50).
[15] abbreviates: A549, 48 h, A549 cells, 48 hours, 0.1% FCS, Resazurin, read-out: inhibitory concentrations of cell growth activity IC50.
Setting [16] is: A549, A549 cells, grade of the IC50 of Table 2, read-out: evaluation of ability to inhibit cell growth activity (IC50).
The mark [17] stands for this setting: SW480, 48 h, SW480 cells, 48 hours, 0.1% FCS, Resazurin, read-out: inhibitory concentrations of cell growth activity IC50.
[18] abbreviates: SW480, SW480 cells, grade of the IC50 of Table 2, read-out: evaluation of ability to inhibit cell growth activity (IC50).
Setting [19] is: U-937, 48 h, U937 cells, 48 hours, 0.1% FCS, Resazurin, read-out: inhibitory concentrations of cell growth activity IC50.
The mark [20] stands for this setting: U-937, U937 cells, grade of the IC50 of Table 2, read-out: evaluation of ability to inhibit cell growth activity (IC50).
[21] abbreviates: SW480 cells, grade of the IC50 of Table 2.
The mark [22] stands for this setting: A549 cells, grade of the IC50 of Table 2.

Read-outs that look alike come from different tables or passages of the source.

On to `C[C@H](C/C=C/C(C)(C)O)[C@H]1CC[C@@]2(C)[C@@H]3[C@@H](O)C=C4[C@@H](CC[C@H](O)C4(C)C)[C@]3(C=O)CC[C@]12C` [Compound 1], for which the IC50 in experiment [1] (setting [9]) was > 256 µM; in experiment [1] (setting [10]) it was > 256 µM; in experiment [2] (setting [11]), > 256 µM; in experiment [2] (setting [12]), > 256 µM; in experiment [3] (setting [9]), 150 µM; in experiment [3] (setting [10]), 64 to 256 µM. The IC50 in experiment [4] (setting [13]), in experiment [4] (setting [14]), in experiment [5] (setting [9]), in experiment [5] (setting [10]), in experiment [6] (setting [15]) and in experiment [6] (setting [16]) was > 256 µM throughout. In addition, the IC50 was > 256 µM in experiment [7] (setting [17]), > 256 µM in experiment [7] (setting [18]), 36.6 µM in experiment [8] (setting [19]) and 16 to 64 µM in experiment [8] (setting [20]).

As for `CC(C)=C[C@H](O)C[C@@H](C)[C@H]1CC[C@@]2(C)[C@@H]3[C@@H](O)C=C4[C@@H](CC[C@H](O)C4(C)C)[C@]3(C=O)CC[C@]12C` [Compound 2], the IC50 is 12.8 µM in experiment [1] (setting [9]); 4.44 µM in experiment [2] (setting [11]); < 8 µM in experiment [2] (setting [12]); 7.52 µM in experiment [3] (setting [9]); < 8 µM in experiment [3] (setting [10]); 7.25 µM in experiment [4] (setting [13]). In addition, the IC50 was < 8 µM in experiment [4] (setting [14]); 11.3 µM in experiment [5] (setting [9]); 8 to 16 µM in experiment [5] (setting [10]); 4.16 µM in experiment [6] (setting [15]); < 8 µM in experiment [6] (setting [16]); 13.1 µM in experiment [7] (setting [17]). Further, the IC50 in experiment [7] (setting [18]) is 8 to 16 µM; in experiment [8] (setting [19]), 0.05 µM; in experiment [8] (setting [20]), < 8 µM. For the same compound, the “evaluation of ability to inhibit cell growth activity (IC50)” value in experiment [1] (grade of the IC50 of Table 2), in experiment [5] (grade of the IC50 of Table 2) and in experiment [7] (setting [21]) was “◯” each time.

For the compound `CC(=O)O[C@H]1C=C2[C@@H](CC[C@H](OC(C)=O)C2(C)C)[C@]2(C=O)CC[C@]3(C)[C@@H]([C@H](C)C[C@H](C=C(C)C)OC(C)=O)CC[C@@]3(C)[C@H]12` [Compound 3], the IC50 was > 256 µM in experiment [1] (setting [9]); > 256 µM in experiment [1] (setting [10]); 5.2 µM in experiment [2] (setting [11]); < 8 µM in experiment [2] (setting [12]); 6.82 µM in experiment [3] (setting [9]); < 8 µM in experiment [3] (setting [10]). Also, the IC50 in experiment [4] (setting [13]) is 10.4 µM; in experiment [4] (setting [14]), 8 to 16 µM; in experiment [5] (setting [9]), 23 µM; in experiment [5] (setting [10]), 16 to 64 µM; in experiment [6] (setting [15]), 12.2 µM; in experiment [6] (setting [16]), 8 to 16 µM. The IC50 in experiment [7] (setting [17]) was 18.2 µM; in experiment [7] (setting [18]), 16 to 64 µM; in experiment [8] (setting [19]), 3.45 µM; in experiment [8] (setting [20]), < 8 µM. Besides, the “evaluation of ability to inhibit cell growth activity (IC50)” value in experiment [4] (MDA-MB-468 cells, grade of the IC50 of Table 2) was “◯”; in experiment [6] (setting [22]), “◯”.

For `CC(=O)O[C@H]1C=C2[C@@H](CC[C@H](OC(C)=O)C2(C)C)[C@]2(C=O)CC[C@]3(C)[C@@H]([C@H](C)C/C=C/C(C)(C)O)CC[C@@]3(C)[C@H]12` [Compound 4], the IC50 is 35.3 µM in experiment [1] (setting [9]); 16 to 64 µM in experiment [1] (setting [10]); 12.1 µM in experiment [2] (setting [11]); 8 to 16 µM in experiment [2] (setting [12]); 14.4 µM in experiment [3] (setting [9]); 8 to 16 µM in experiment [3] (setting [10]). Besides, the IC50 is 18.6 µM in experiment [4] (setting [13]); 16 to 64 µM in experiment [4] (setting [14]); 29.4 µM in experiment [5] (setting [9]); 16 to 64 µM in experiment [5] (setting [10]); 12.9 µM in experiment [6] (setting [15]); 8 to 16 µM in experiment [6] (setting [16]). Further, the IC50 in experiment [7] (setting [17]) is 13 µM; in experiment [7] (setting [18]) it was 8 to 16 µM; in experiment [8] (setting [19]), 8.08 µM; in experiment [8] (setting [20]), 8 to 16 µM. For the same compound, the “evaluation of ability to inhibit cell growth activity (IC50)” value in experiment [2] (MDA-MB-231 cells, grade of the IC50 of Table 2) was “◯”; in experiment [3] (grade of the IC50 of Table 2) it was “◯”; in experiment [6] (setting [22]), “◯”; in experiment [7] (setting [21]), “◯”; in experiment [8] (U937 cells, grade of the IC50 of Table 2), “◯”.
